Tests used:
Danio rerio embryo = test: BMC10 any morphological effect or mortality at 120 hpf; higher = less toxic
HL-60 = test: Cell Health Index (toxicity pseudo-probability over dose series) (index 0-1); higher = more cytotoxic / cell stress;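 also: HL-60 cells exposed 4 h at 37 °C to ten threefold dilutions spanning 5 nM to 100 µM, multiparametric flow cytometry features scored by machine-learning classification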

Row | Compound | BMC10 any morphological effect or mortality (Danio rerio embryo) [µM] | Cell Health Index (HL-60)
1 | Cc1nnc(C(=O)NC(C)(C)c2nc(C(=O)NCc3ccc(F)cc3)c([O-])c(=O)n2C)o1.[K+] [Raltegravir] | > 100 | 0.218
2 | O=C(O)[C@H]1O[C@@H](Oc2cc3oc(-c4ccccc4)cc(=O)c3c(O)c2O)[C@H](O)[C@@H](O)[C@@H]1O [Baicalin] | > 100 | 0.718
3 | O=c1[nH]c(=O)n([C@H]2C[C@H](O)[C@@H](CO)O2)cc1/C=C/Br [Brivudine] | > 100 | 0.157
4 | COc1ccc(C2CC(=O)c3c(O)cc(O)cc3O2)cc1O (stereo unspecified) [Hesperetin] | > 100 | 0.258
5 | C1=C2CCCN[C@H]2[C@@H]2C[C@H]1[C@H]1CCCCN1C2 [Aloperine] | > 100 | 0.209
6 | O=c1cc(-c2ccc(O)c(-c3c(O)cc(O)c4c(=O)cc(-c5ccc(O)cc5)oc34)c2)oc2cc(O)cc(O)c12 [Amentoflavone] | > 100 | 0.74
7 | CC1(C)O[C@H]2CC(=O)OC[C@]23[C@H]2CC[C@@]4(C)[C@H](c5ccoc5)OC(=O)[C@H]5O[C@]54[C@]2(C)C(=O)C[C@@H]13 [Limonin] | > 100 | 0.145
8 | O=C1/C(=C/c2ccc(O)c(O)c2)COc2cc(O)ccc21 [Sappanone A] | > 100 | 0.614
9 | Cc1cn([C@H]2C[C@H](N=[N+]=[N-])[C@@H](CO)O2)c(=O)[nH]c1=O [Zidovudine] | > 100 | 0.17
10 | CC(O)(P(=O)([O-])O)P(=O)([O-])O.[Na+].[Na+] [Etidronic acid] | > 100 | 0.198
11 | CCCCCCCCCCCCCCCC(=O)NCCO [Palmitoyl ethanolamide] | > 100 | 0.283
12 | O=C(O[C@@H]1Cc2c(O)cc(O)cc2O[C@@H]1c1cc(O)c(O)c(O)c1)c1cc(O)c(O)c(O)c1 [(-)-Epigallocatechin gallate] | > 100 | 0.854
13 | CCCCc1nc(Cl)c(C(=O)O)n1Cc1ccc(-c2ccccc2-c2nnn[nH]2)cc1 [Losartan carboxylic acid] | > 100 | 0.221
14 | Cc1cn([C@H]2C=C[C@@H](CO)O2)c(=O)[nH]c1=O [Stavudine] | > 100 | 0.204
15 | Cc1cc(O)c2c(c1)C(=O)c1cccc(O)c1C2=O [Chrysophanol] | > 100 | 0.288
16 | O=c1[nH]c(=O)n([C@H]2C[C@H](O)[C@@H](CO)O2)cc1I [Idoxuridine] | > 100 | 0.205
17 | C[C@H](Cn1cnc2c(N)ncnc21)OCP(=O)(O)O [Tenofovir] | > 100 | 0.229
18 | C[C@@H]1CCN(C(=O)CC#N)C[C@@H]1N(C)c1ncnc2[nH]ccc12.O=C(O)CC(O)(CC(=O)O)C(=O)O [Tofacitinib] | > 100 | 0.228
19 | CC(C)C[C@H](NC(=O)[C@H](CCc1ccccc1)NC(=O)CN1CCOCC1)C(=O)N[C@@H](Cc1ccccc1)C(=O)N[C@@H](CC(C)C)C(=O)[C@@]1(C)CO1 [Carfilzomib] | > 100 | 0.42

Row | Compound | BMC10 any morphological effect or mortality (Danio rerio embryo) [µM] | Cell Health Index (HL-60)
20 | COC(=O)N[C@H](C(=O)N1CCC[C@H]1c1ncc(-c2ccc(-c3ccc(-c4cnc([C@@H]5CCCN5C(=O)[C@@H](NC(=O)OC)C(C)C)[nH]4)cc3)cc2)[nH]1)C(C)C [Daclatasvir] | > 100 | 0.208
21 | Nc1nc(=O)n([C@@H]2CS[C@H](CO)O2)cc1F [Emtricitabine] | > 100 | 0.158
22 | O=C(/C=C/c1ccc(O)c(O)c1)O[C@@H]1C[C@](O)(C(=O)O)C[C@@H](O)[C@H]1O [Chlorogenic acid] | > 100 | 0.232
23 | Nc1ccn([C@@H]2O[C@H](CO)[C@@H](O)[C@@H]2O)c(=O)n1 [Cytarabine] | > 100 | 0.203
24 | COc1ccc([C@@H]2CC(=O)c3c(O)cc(O[C@@H]4O[C@H](CO[C@@H]5O[C@@H](C)[C@H](O)[C@@H](O)[C@H]5O)[C@@H](O)[C@H](O)[C@H]4O)cc3O2)cc1O [Hesperidin] | > 100 | 0.204
25 | CCN(CCO)CCCC(C)Nc1ccnc2cc(Cl)ccc12.O=S(=O)(O)O (stereo unspecified) [Hydroxychloroquine] | > 100 | 0.211
26 | CCOC(=O)C1=C[C@@H](OC(CC)CC)[C@H](NC(C)=O)[C@@H](N)C1.O=P(O)(O)O [Oseltamivir] | > 100 | 0.252
27 | O[C@H]1[C@@]2([H])[C@](CC[C@]2([H])[C@@](O)(C)CC/C=C(C)/C)(C)[C@]3(C)CC[C@]4([H])[C@@](CC[C@H](O[C@]5([H])O[C@H](CO)[C@@H](O)[C@H](O)[C@H]5O)C4(C)C)(C)[C@@]3([H])C1 [20(R)-Ginsenoside Rh2] | > 100 | 0.227
28 | O=c1c(O[C@@H]2O[C@H](CO)[C@@H](O)[C@H](O)[C@H]2O)c(-c2ccc(O)c(O)c2)oc2cc(O)cc(O)c12 [Isoquercetin] | > 100 | 0.31
29 | OC[C@H]1OC(O)C[C@@H](O)[C@@H]1O (stereo partly drawn) [2-deoxy-D-Glucose] | > 100 | 0.325
30 | Nc1nc2c(ncn2COCCO)c(=O)[nH]1 [Acyclovir] | > 100 | 0.214
31 | Nc1nccc2c1ncn2[C@@H]1O[C@H](CO)[C@@H](O)[C@H]1O [3-Deazaadenosine] | > 100 | 0.318
32 | C[C@H]1CC[C@@]2(O)C(C)(C)[C@@H]3CC[C@@]2(C)[C@H]1C3 [Patchouli alcohol] | > 100 | 0.202
33 | CC1(C)[C@@H]2CC[C@@]1(C)C(=O)C2 [(1R)-(+)-Camphor] | > 100 | 0.135
34 | O=c1[nH]c(=O)n([C@@H]2O[C@H](CO)[C@@H](O)[C@@H]2F)cc1I [Fialuridine] | > 100 | 0.209
35 | Nc1nc(NC2CC2)c2ncn([C@H]3C=C[C@@H](CO)C3)c2n1.O=S(=O)(O)O [Abacavir] | > 100 | 0.116
36 | O=C1C=CC[C@@H]2[C@H]3CCCN4CCC[C@@H](CN12)[C@@H]34 [Sophocarpine] | > 100 | 0.164
37 | O=C1NC(=O)C(c2ccccc2)(c2ccccc2)N1 [Phenytoin] | > 100 | 0.193
38 | CC(=O)SC[C@H](NC(=O)CC[C@H](N)C(=O)O)C(=O)NCC(=O)O [S-acetyl-L-Glutathione] | > 100 | 0.168

Reference: the supplement of paper PMC11821682
